What all share (assay): NCI tumour cell line growth inhibition, 48 h
Assay [1] relates to OVCAR-5 ovarian.
Assay [2] relates to HT29 colon.
The test system of assay [3] is MALME-3M melanoma.
Assay [4] has as its system U251 CNS.
Assay [5] relates to NCI-H522 lung.
Assay [6] concerns ACHN renal.
Assay [7] relates to CAKI-1 renal.
In assay [8] the test system is UACC-62 melanoma.
Assay [9] has as its system SK-MEL-2 melanoma.
In assay [10] the test system is 786-0 renal.

SMILES strings stand for the structures.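 Five compound concentrations were applied to cells in 96-well plates for 48 hours; endpoints were derived by simple linear interpolation of the resulting dose-response curve. GI50 marks 50% less growth. TGI denotes the concentration required for complete inhibition of growth.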

As to `CCCCCCCCSC1=CC(=O)c2nc3ccccc3c3ccnc1c23`, the GI50 in [1] is > 100 µM; in [2], > 100 µM; in assay [3], 83.3 µM; in [4] it was 92.6 µM; in [5], 62.8 µM; in assay [6], 52.2 µM. In addition, the GI50 was 59.8 µM in assay [7], 42 µM in assay [8], > 100 µM in assay [9] and > 100 µM in [10]. For the same compound, the TGI in assay [1], in assay [2], in assay [3], in assay [4], in [5] and in assay [6] was > 100 µM throughout. Moreover, the TGI in assay [7], in assay [8], in assay [9] and in [10] was > 100 µM throughout.
In the case of `O=C(O)c1cc(C(=O)O)cc(N2C(=O)c3ccccc3C2=O)c1`, the TGI in [1], in assay [2], in assay [3], in assay [4], in assay [5] and in [6] was > 100 µM in each case. Further, the TGI in assay [7], in assay [8], in [9] and in assay [10] was > 100 µM throughout.
In the case of `CCOc1ccccc1-n1c(CN2CCN(C(=O)COc3ccc(CNCCCCCCN4C5CCCC4CC(OC(=O)Nc4cc(C)ccc4OC)C5)cc3)CC2)nc2ccccc2c1=O` (centres undefined), the GI50 was 1.9 µM in assay [1]; 0.798 µM in assay [2]; 1.7 µM in assay [3]; 0.61 µM in [4]; 1.79 µM in assay [5]; 2.4 µM in [6]. In addition, the GI50 was 1.63 µM in assay [7], 1.77 µM in [8], 1.99 µM in assay [9] and 1.58 µM in [10]. Moreover, the TGI in assay [1] was 3.45 µM; in assay [2], 2.05 µM; in assay [3] it was 3.21 µM; in assay [4] it was 1.2 µM; in [5], 3.45 µM; in [6], 5.9 µM. Besides, the TGI in [7] came out at 3.06 µM; in assay [8], 3.22 µM; in [9], 3.62 µM; in assay [10] it was 3.09 µM.
Regarding `Cc1cc(=O)n2[nH]c(-c3ccc(C(C)(C)C)cc3)cc2n1`, the GI50 in assay [1] is 17.7 µM; in assay [2], 5.12 µM; in assay [3], 2.76 µM; in assay [4], 3.24 µM; in assay [5], 3.42 µM; in assay [6] it was 5.65 µM. For the same compound, the GI50 was 2.6 µM in assay [7], 3.83 µM in assay [8], 10.5 µM in [9] and 10.3 µM in assay [10]. In addition, the TGI in assay [1] was > 100 µM; in [2] it was > 100 µM; in [3] it was 29 µM; in assay [4], 64.5 µM; in [5], 43 µM; in assay [6] it was > 100 µM. In addition, the TGI in [7] was 32.7 µM; in [8], > 100 µM; in assay [9], 65.5 µM; in [10], > 100 µM.
With `O=[N+]([O-])c1cnc(Sc2ccncn2)s1`, the GI50 in [1] was 14 µM; in [2], 2.65 µM; in assay [3], 2.07 µM; in assay [4], 3.49 µM; in assay [5], 1.62 µM; in assay [6], 1.81 µM. The GI50 in assay [7] was 1.64 µM; in assay [8], 6.12 µM; in assay [9] it was 7.99 µM; in assay [10], 6.72 µM. Further, the TGI was determined as 28.3 µM in [1]; 6.37 µM in assay [2]; 3.94 µM in assay [3]; 11.5 µM in assay [4]; 3.34 µM in [5]; 3.24 µM in assay [6]. The TGI was 3.07 µM in assay [7], 16.9 µM in assay [8], 21.9 µM in [9] and 18.4 µM in assay [10].
Regarding `COc1ccc(-c2cc(-c3ccc(Nc4nc(Nc5ccccc5)nc(Nc5ccc(Cl)cc5)n4)cc3)nc(N)c2C#N)cc1`, the GI50 in assay [1] is 1.13 µM; in [2], 1.1 µM; in assay [3] it was 0.801 µM; in assay [4], 1.23 µM; in [5], 1.16 µM; in assay [6], 0.885 µM. Moreover, the GI50 was 0.705 µM in [7], 1.47 µM in [8], 1.09 µM in [9] and 1.05 µM in assay [10]. Further, the TGI turned out to be 2.86 µM in assay [1]; 2.96 µM in assay [2]; 1.8 µM in assay [3]; 3.68 µM in [4]; 3.38 µM in [5]; 1.77 µM in assay [6]. The TGI turned out to be 1.49 µM in assay [7], 6.73 µM in [8], 2.66 µM in assay [9] and 2.06 µM in [10].
For the compound `Cn1ccnc1C(=O)/C=C/c1ccc(CC(=O)Nc2ccc(Br)cc2)cc1`, the GI50 in assay [1] is 2.74 µM; in [2] it was 4.05 µM; in assay [3], 4.04 µM; in [4], 1.97 µM; in assay [5] it was 3.83 µM; in [6], 4.4 µM. Moreover, the GI50 in assay [7] is 3.59 µM; in assay [8], 2.8 µM; in assay [9] it was > 16.7 µM; in assay [10] it was 2.77 µM. Also, the TGI in assay [1] was 7.38 µM; in [2], 9.96 µM; in assay [3] it was 10.8 µM; in assay [4] it was 4.51 µM; in assay [5], 8.25 µM; in [6] it was > 16.7 µM. In addition, the TGI is 11.6 µM in [7], 5.73 µM in assay [8], > 16.7 µM in assay [9] and 5.92 µM in [10].
Regarding `CCOC(=O)COc1cccc2c1C(=O)CCO2`, the TGI in [1], in assay [2], in [3], in assay [4], in [5] and in assay [6] was > 100 µM throughout. The TGI in [7], in assay [8], in assay [9] and in assay [10] was > 100 µM in each case.
As for `COc1cc(/C=C/c2cc(/C=C/c3ccc(O)c(OC)c3)n(C(=O)Nc3ccc(F)cc3)n2)ccc1O`, the GI50 was 3.99 µM in [1]; 2.03 µM in [2]; 0.743 µM in assay [3]; 0.769 µM in assay [4]; 0.25 µM in assay [5]; 0.704 µM in [6]. The GI50 in [7] was 0.77 µM; in [8] it was 0.817 µM; in [9] it was 0.515 µM; in [10], 1.08 µM. The TGI in assay [1] turned out to be 45 µM; in assay [2] it was 4.69 µM; in [3] it was 7.85 µM; in assay [4], 10.5 µM; in [5] it was 1.21 µM; in assay [6] it was 61.2 µM. The TGI is 49.5 µM in [7], 6.68 µM in assay [8], 3.32 µM in assay [9] and 6.8 µM in [10].
For the compound `Cc1cc(=O)[nH]c2cc3oc4ccccc4c3cc12`, the TGI in [1] was > 100 µM; in assay [2], > 100 µM; in [3], > 100 µM; in assay [4], > 86.6 µM; in assay [5], > 100 µM; in assay [6], > 100 µM. The TGI in [7] was > 100 µM; in assay [8] it was > 100 µM; in assay [9], > 100 µM; in assay [10], > 81.8 µM.
As to `O=C(CCl)N1c2ccccc2Oc2ccc3ccccc3c21`, the GI50 is 1.81 µM in [1]; 0.432 µM in [2]; 1.33 µM in assay [3]; 1.36 µM in assay [4]; 0.614 µM in assay [5]; 1.37 µM in [6]. In addition, the GI50 in assay [7] was 1.02 µM; in assay [8] it was 1.57 µM; in assay [9] it was 1.14 µM; in assay [10], 2.05 µM. Moreover, the TGI in assay [1] worked out at 3.59 µM; in assay [2] it was 1.51 µM; in assay [3], 2.91 µM; in assay [4], 2.7 µM; in [5], 1.9 µM; in assay [6] it was 2.82 µM. The TGI in [7] was 3.8 µM; in [8], 3 µM; in assay [9], 2.67 µM; in assay [10] it was 3.56 µM.
In the case of `CCCCCCCC(=O)SCC/C=C/[C@@H]1CC(=O)NCc2cccc(n2)C2=N[C@@](C)(CS2)C(=O)N[C@@H](C(C)C)C(=O)N1`, the GI50 in assay [1] was 0.771 µM; in assay [2], 0.181 µM; in [3] it was 0.142 µM; in [4], 0.889 µM; in assay [5], 0.12 µM; in assay [6], 2.71 µM. The GI50 was 16.9 µM in [7], 0.192 µM in [8], 1.03 µM in [9] and 5.52 µM in [10]. In addition, the TGI in assay [1] was > 33.3 µM; in assay [2], 7.23 µM; in assay [3] it was 2.37 µM; in [4], 8.16 µM; in assay [5], 1.85 µM; in assay [6] it was > 33.3 µM. Besides, the TGI in assay [7] is > 33.3 µM; in assay [8], 4.88 µM; in assay [9] it was 15.6 µM; in assay [10] it was > 33.3 µM.
In the case of `COc1cc2nc(-c3ccc(C(F)(F)F)cc3)cc(OCCCN3CCC(O)CC3)c2cc1OC`, the GI50 was 3.14 µM in assay [1]; 0.486 µM in assay [2]; 2.65 µM in assay [3]; 2.12 µM in assay [4]; 4.15 µM in assay [5]; 3.18 µM in [6]. Further, the GI50 in [7] is 0.376 µM; in assay [8], 2.61 µM; in [9], 3.85 µM; in assay [10] it was 4.72 µM. Moreover, the TGI in assay [1] worked out at 20.7 µM; in [2] it was 10.4 µM; in [3], 11.8 µM; in [4], 20.6 µM; in [5], 19.3 µM; in assay [6], 16.7 µM. Moreover, the TGI in [7] was 13.1 µM; in [8], 7.28 µM; in [9], 16.5 µM; in assay [10], 19.8 µM.
Turning to `COc1ccc2c(c1)C(=O)/C(=C/c1ccc(OCC(=O)Nc3nccs3)cc1)O2`, the GI50 in assay [1] was 1.79 µM; in assay [2], 5.31 µM; in assay [3], 0.858 µM; in assay [4], 0.598 µM; in assay [5], 0.191 µM; in assay [6] it was 2.67 µM. Further, the GI50 in [7] was 0.392 µM; in assay [8], 9.71 µM; in assay [9] it was 0.231 µM; in [10] it was 0.237 µM. Besides, the TGI in assay [1] was found to be 10.2 µM; in [2] it was 29.2 µM; in assay [3], 4.15 µM; in [4] it was 22.4 µM; in assay [5], 0.393 µM; in [6] it was 20.5 µM. Also, the TGI in [8] is 23.2 µM; in assay [9], 0.588 µM; in assay [10], 0.563 µM.
On to `CC(C)c1ccc(C(C)C(=O)N(CC2=C(C(C)c3ccccn3)c3ccccc3C2)C(C)C)cc1` (centres undefined), for which the GI50 in [1] is 5.33 µM; in [2], 1.6 µM; in assay [3], 2.83 µM; in [4], 2.85 µM; in assay [5] it was 2.59 µM; in [6], 3.22 µM. Further, the GI50 is 1.76 µM in assay [7], 8.79 µM in [8], 2.55 µM in [9] and 3.14 µM in [10]. Moreover, the TGI in assay [1] is 95.9 µM; in [2], 3.77 µM; in [3] it was 8.57 µM; in assay [4] it was 13.6 µM; in assay [5] it was 15.7 µM; in assay [6], > 100 µM. Moreover, the TGI in [7] worked out at 6.73 µM; in [8] it was 37.6 µM; in [9], 7.15 µM; in assay [10], 11.5 µM.
With `Cc1cc(=O)[nH]c(NNC(C#N)c2cccc(O)c2)n1` (centres undefined), the TGI in assay [1], in assay [2], in assay [3], in [4], in [5] and in assay [6] was > 100 µM throughout. The TGI in assay [7], in assay [8], in [9] and in assay [10] was > 100 µM throughout.

Source of the values: PubChem BioAssay (NCI).
